Experimental data from patent US12365705B2, “Epitope tags recognized by specific binders” (NANOTAG BIOTECHNOLOGIES GmbH, priority 2018, dated 2025).

Legend:
[1] = test system: NbALFA^PE (SEQ ID NO: 134); assay: Off-rate assay: peptide elution of ALFA^ST-tagged shGFP2 from ALFA Selector^PE resin; assay type: binding, Alpaca; details: for t1/2: peptide elution from ALFA Selector^PE
Description: FIG. 8: Interaction of ALFA^ST-tagged proteins with ALFA Selector^ST and ALFA Selector^PE resins. • A; Sketch of ALFA Selector resins bound to shGFP2-ALFA^ST. In this sketch, the ALFA Selector resin could be ALFA Selector^ST or ALFA Selector^PE. • B and C; Peptide elution from NbALFA-coupled affinity resins. […] To estimate off-rates, the resins were suspended PBS containing an excess of free ALFA^ST peptide and incubated at 25° C. Control reactions were carried out without peptide. At indicated time points, shGFP2 released from the resin was quantified. […] Lines represent fits to a single exponential. Efficient peptide elution of shGFP2-ALFA^ST from ALFA Selector^E was observed already after 15-20 min at room temperature. […] A photo was taken upon UV illumination after 3 h of elution (C). • D; Resistance towards stringent washing steps. ALFA Selector variants described in B were charged with either ALFA^ST-shGFP2 or shGFP2-ALFA^ST and incubated with a 10-fold volume of the indicated substances for 1 h at 25° C. with shaking. Without further washing steps, photos were taken upon UV illumination after sedimentation of the beads. • E; Resistance towards non-physiological pH. Similar to D. Here, however, the resin was washed to remove non-bound material after incubating at indicated pH for 30 min. Photos were taken after re-equilibration in PBS to allow for recovery of the GFP fluorescence.
After washing with PBS, the beads were suspended in a 10-fold excess of PBS containing 200 μM free ALFA^ST peptide and gently mixed at 25° C. Control reactions were carried out without peptide. At indicated time points, specific elution from the beads was quantified using the GFP fluorescence released into the supernatant. Shown are mean fluorescence readings of three experiments as well as standard deviations for each time point. Lines represent fits to a single exponential. Half times are given for peptide elution from ALFA Selector^PE only. […] FIG. 10A recapitulates data shown in FIG. 8B and is repeated here to allow for a direct comparison. Left panels: Sketch illustrating the experimental setup. The ALFA Selector resin could be ALFA Selector^ST or ALFA Selector^PE; middle panels: Experiments performed with ALFA Selector^ST; right panel: Experiments performed with ALFA Selector^PE.
Next, we site-specifically immobilized NbALFA^ST on an agarose-based resin with ultra-low background via a hydrophilic and flexible linker. Binding to the nanobody-coupled resin was analyzed using an ALFA^ST-tagged GFP variant (shGFP2; Frey, S. et al. Surface Properties Determining Passage Rates of Proteins through Nuclear Pores. Cell 174, 202-217.e9 (2018); FIG. 8A, B). As expected, shGFP2-ALFA^ST efficiently and tightly bound to the resulting resin. […]

[2] = test system: NbALFA^ST (SEQ ID NO: 133); assay: Off-rate assay: peptide elution of ALFA-tagged shGFP2 fusions from ALFA Selector^ST resin; assay type: binding, Alpaca
Description: After washing 4 times with PBS, the beads were suspended in a 10-fold excess of PBS containing 200 μM ALFA^ST peptide (Ac-[sequence]-Amide, SEQ ID NO: 179) and gently mixed at room temperature. At indicated time points, specific elution from the beads was quantified using the GFP fluorescence released into the supernatant. Shown are mean fluorescence values from three independent experiments performed in parallel and standard deviations for each time point. […] C, 10 μl of ALFA Selector^ST resin saturated with either ALFA^ST-shGFP2 (top row) or ALFA^PE-shGFP2 (bottom row) were transferred into 8-well PCR strips. After removing remaining liquid, the beads were incubated with 10 μl of the indicated substances for 60 min at room temperature. Photos were taken after sedimentation of the beads.
20 μl ALFA Selector^ST or ALFA Selector^PE (NanoTag Biotechnologies) was saturated with the respective recombinant target protein. After washing 4× with PBS, the beads were suspended in a 10-fold excess of PBS containing 200 μM free ALFA^ST peptide and mixed at 25° C. Control reactions were carried out without peptide. At indicated time points, specific elution from the beads was quantified using the GFP fluorescence released into the supernatant (Q-Bit 3.0; Thermo-Fischer Scientific). Three independent experiments were performed in parallel. Mean values, standard deviations and exponential fits were calculated using GraphPad Prism 5.0. Photographic pictures were taken upon UV illumination using a Nikon D700 equipped with a 105 mm macro lens (Nikon).

[3] = property of tag; cited from earlier work
[4] = test system: ALFA^ST-tagged target proteins (ALFA^ST-Vimentin or Tom70-EGFP-ALFA^ST); assay: Intrabody-based detection in co-transfected COS-7 cells; assay type: cell-based; details: co-expression in cytoplasm
Excerpt: Grey boxes indicate CDRs 1-3 (AbM definition, SEQ ID NOs: 115-117). • C: COS-7 cells transfected with Tom70-EGFP-ALFA^ST (upper row) or Tom70-EGFP-ALFA^PE (lower row) were fixed with 4% paraformaldehyde. […] First column: FluoTag-X2 anti-ALFA; second column: target detection using the intrinsic EGFP fluorescence; third column: overlay incl. […] Right column: Sketch of ALFA-tagged vimentins detected by fluorescently labeled NbALFA^ST. • E: Intrabody-based detection of ALFA^ST-tagged proteins. COS-7 cells were co-transfected with an NbALFA^ST-mScarlet-I fusion and ALFA^ST_tagged target proteins. Target proteins were detected via EGFP fluorescence (for TOM70-EGFP-ALFA^ST) or immunofluorescence using FluoTag anti-ALFA AbberiorStar635P (for ALFA^ST-FLAG-Vimentin). In parallel, NbALFA^ST-mScarlet-I was detected by the red mScarlet-I fluorescence. Note the excellent co-localization between the target protein (left column) and the mScarlet-I signal (middle column).
We next wanted to know if our NbALFA^ST can also be used as an intrabody. […]

NbALFA^PE (SEQ ID NO: 134), sequence (as listed by the source): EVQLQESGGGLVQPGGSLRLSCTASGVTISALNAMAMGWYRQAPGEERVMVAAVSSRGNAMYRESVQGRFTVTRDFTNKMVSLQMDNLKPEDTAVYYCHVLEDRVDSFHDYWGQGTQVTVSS

ALFA^ST-shGFP2: GFP variant shGFP2 with N-terminal ALFA^ST tag
t1/2 ([1]; N-terminal ALFA^ST tag): ~0.833 min | protein remained on the resin ([2]; after 90 minutes competition with 10 column volumes of 200 μM ALFA^ST peptide): > 95%

YPYDVPDYA [HA-tag]
Water solubility [3]: poor

shGFP2-ALFA^ST: GFP variant shGFP2 with C-terminal ALFA^ST tag
time to efficient release from ALFA Selector^PE ([1]; native conditions, room temperature, competition with free ALFA^ST peptide): 15 to 20 min | washing time over which target protein remained stably bound to ALFA Selector^PE ([1]; no free peptide): > 1 h | t1/2 ([1]; C-terminal ALFA^ST tag): ~3 min | protein remained on the resin ([2]; after 60 minutes competition with 10 column volumes of 200 μM ALFA^ST peptide): > 95% | peptide elution from ALFA Selector^ST ([2]; excess of free ALFA^ST peptide (200 μM)): inefficient even after prolonged incubation

B1: NbALFA^ST fused to mScarlet-I: NbALFA^ST fused to red fluorescent protein mScarlet-I, used as intrabody (protein)
chain: MGSGDASDSEVQLQESGGGLVQPGGSLRLSCTASGVTISALNAMAMGWYRQAPGERRVMVAAVSERGNAMYRESVQGRFTVTRDFTNKMVSLQMDNLKPEDTAVYYCHVLEDRVDSFHDYWGQGTQVTVSSEPKTPKPQTSGSTGENVATMVSKGEAVIKEFMRFKVHMEGSMNGHEFEIEGEGEGRPYEGTQTAKLKVTKGGPLPFSWDILSPQFMYGSRAFIKHPADIPDYYKQSFPEGFKWERVMNFEDGGAVTVTQDTSLEDGTLIYKVKLRGTNFPPDGPVMQKKTMGWEASTERLYPEDGVLKGDIKMALRLKDGGRYLADFKTTYKAKKPVQMPGAYNVDRKLDITSHNEDYTVVEQYERSEGRHSTGGMDELYK
modifications: fusion protein
notes: NbALFA^ST fused to red fluorescent protein mScarlet-I, used as intrabody
co-localization of mScarlet-I signal with target protein [4]: robustly co-localized
